Experimental data: PubChem BioAssay (NCI)
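Growth conditions: 96-well plates. Treatment: test compound, 48 hours, 5 concentrations. Analysis: linear interpolation between bracketing concentrations; unreached endpoints set to highest concentration. TGI: concentration producing complete growth inhibition.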

Columns and labels:
Assay in all cases: inhibition of tumour cell growth, NCI panel, 48 h
[1] = tested on: SK-MEL-5 melanoma
[2] = tested on: HL-60(TB) leukemia
[3] = tested on: TK-10 renal
[4] = tested on: HCC-2998 colon
[5] = tested on: HCT-116 colon
[6] = tested on: CAKI-1 renal
[7] = tested on: HT29 colon
[8] = tested on: K-562 leukemia
[9] = tested on: UACC-257 melanoma
[10] = tested on: SK-MEL-28 melanoma
[11] = tested on: HS 578T breast
[12] = tested on: M14 melanoma
[13] = tested on: OVCAR-5 ovarian
[14] = tested on: MOLT-4 leukemia
[15] = tested on: OVCAR-8 ovarian
[16] = tested on: NCI/ADR-RES ovarian
[17] = tested on: SK-OV-3 ovarian
[18] = tested on: UACC-62 melanoma
[19] = tested on: MDA-MB-435
[20] = tested on: MALME-3M melanoma
[21] = tested on: A549 NSCLC
[22] = tested on: PC-3 prostate
[23] = tested on: COLO 205 colon
[24] = tested on: NCI-H522 lung
[25] = tested on: KM12 colon
[26] = tested on: SF-295 CNS
[27] = tested on: NCI-H226 lung
[28] = tested on: MDA-MB-231 breast
[29] = tested on: SNB-75 CNS
[30] = tested on: SR leukemia
[31] = tested on: DU-145 prostate
[32] = tested on: T-47D breast
[33] = tested on: HCT-15 colon
[34] = tested on: EKVX NSCLC
[35] = tested on: HOP-62 NSCLC
[36] = tested on: A498 renal
[37] = tested on: MCF7 breast
[38] = tested on: SNB-19 CNS
[39] = tested on: CCRF-CEM leukemia
[40] = tested on: NCI-H23 lung
[41] = tested on: OVCAR-4 ovarian
[42] = tested on: BT-549 breast
[43] = tested on: HOP-92 NSCLC
[44] = tested on: NCI-H460 lung
[45] = tested on: MDA-N
[46] = tested on: UO-31 renal
[47] = tested on: SK-MEL-2 melanoma
[48] = tested on: 786-0 renal
[49] = tested on: ACHN renal
[50] = tested on: SF-539 CNS
[51] = tested on: RPMI-8226 leukemia
[52] = tested on: SF-268 CNS
[53] = tested on: IGROV1 ovarian
[54] = tested on: LOX IMVI melanoma
[55] = tested on: SW-620 colon
[56] = tested on: RXF 393 renal
[57] = tested on: SN12C renal
[58] = tested on: U251 CNS
[59] = tested on: OVCAR-3 ovarian

Cc1nc2c(nc1C)-c1c(c3c(n1Cc1ccccc1)C(=O)CCC3)C(=O)C2=O
TGI [1]: 24.6 µM
TGI [2]: 97.7 µM
TGI [3]: 38.1 µM
TGI [4]: 5.49 µM
TGI [5]: > 100 µM
TGI [6]: 5.32 µM
TGI [7]: 23.9 µM
TGI [8]: > 100 µM
TGI [9]: 48.3 µM
TGI [10]: 4.18 µM
TGI [11]: 7.99 µM
TGI [12]: 91.1 µM
TGI [13]: > 100 µM
TGI [14]: > 100 µM
TGI [15]: > 100 µM
TGI [16]: > 100 µM
TGI [17]: > 100 µM
TGI [18]: 50.9 µM
TGI [19]: 5.98 µM
TGI [20]: 14.2 µM
TGI [21]: > 100 µM
TGI [22]: 29.4 µM
TGI [23]: > 100 µM
TGI [24]: 7.28 µM
TGI [25]: 4.64 µM
TGI [26]: 71.1 µM
TGI [27]: 48.4 µM
TGI [28]: > 100 µM
TGI [29]: 6.56 µM
TGI [30]: 6.36 µM
TGI [31]: 88.8 µM
TGI [32]: > 100 µM
TGI [33]: > 100 µM
TGI [34]: > 100 µM
TGI [35]: > 100 µM
TGI [36]: 38 µM
TGI [37]: 5.39 µM
TGI [38]: 28.8 µM
TGI [39]: > 100 µM
TGI [40]: > 100 µM
TGI [41]: 3.59 µM
TGI [42]: 5.84 µM
TGI [43]: 90.3 µM
TGI [44]: > 100 µM
TGI [45]: 4.82 µM
TGI [46]: 4.07 µM
TGI [47]: 31.7 µM
TGI [48]: > 100 µM

Cn1c(N2CCCC2)c(C=O)c(=O)n(C)c1=O
TGI [1]: > 100 µM
TGI [2]: > 100 µM
TGI [49]: > 100 µM
TGI [50]: > 100 µM
TGI [3]: > 100 µM
TGI [4]: > 100 µM
TGI [5]: > 100 µM
TGI [6]: > 100 µM
TGI [7]: > 100 µM
TGI [51]: > 100 µM
TGI [8]: > 100 µM
TGI [9]: > 100 µM
TGI [10]: > 100 µM
TGI [11]: > 100 µM
TGI [12]: > 100 µM
TGI [13]: > 100 µM
TGI [14]: > 100 µM
TGI [15]: > 100 µM
TGI [16]: > 100 µM
TGI [52]: > 100 µM
TGI [17]: > 100 µM
TGI [18]: > 100 µM
TGI [19]: > 100 µM
TGI [20]: > 100 µM
TGI [21]: > 100 µM
TGI [22]: > 100 µM
TGI [23]: > 100 µM
TGI [24]: > 100 µM
TGI [25]: > 100 µM
TGI [26]: > 100 µM
TGI [27]: > 100 µM
TGI [28]: > 100 µM
TGI [53]: > 100 µM
TGI [29]: 93 µM
TGI [31]: > 100 µM
TGI [32]: > 100 µM
TGI [33]: > 100 µM
TGI [34]: > 100 µM
TGI [54]: > 100 µM
TGI [55]: > 100 µM
TGI [56]: > 100 µM
TGI [35]: > 100 µM
TGI [57]: > 100 µM
TGI [36]: > 100 µM
TGI [37]: > 100 µM
TGI [38]: > 100 µM
TGI [39]: > 100 µM
TGI [40]: > 100 µM
TGI [58]: > 100 µM
TGI [41]: > 100 µM
TGI [42]: > 100 µM
TGI [43]: > 100 µM
TGI [44]: > 100 µM
TGI [59]: > 100 µM
TGI [45]: > 100 µM
TGI [46]: > 100 µM
TGI [47]: > 100 µM
TGI [48]: > 100 µM
